The values below come from patent US20060111368A1, “Phosphodiesterase inhibitor” (Kyowa Hakko Kogyo Co., Ltd., priority 2002, published 2006).

As a reminder, the inhibition is the change of the read-out against control, counted positive when it falls. As usually defined, the melting point is the temperature, or range, at which the solid turns liquid.

Where two headings read alike, the source gives them in different places.

The target in one series is T1, PDE10A (Homo sapiens, UniProt Q9Y233).
T1 construct: made in house; host or cells: Sf9 insect cells (baculovirus, pVL1393)
Kind of series: Activity of inhibiting PDE10A activity ([3H]cAMP decomposition inhibiting test). It counts as biochemical. The conditions noted are these: for inhibition at 1 µM: read-out: [3H] cAMP decomposition inhibition rate (%); for IC50: read-out: IC50 (concentration at which to inhibit [3H]cAMP decomposition by 50%). The protocol:
Activity of Inhibiting PDE10A Activity (^3H]cAMP Decomposition Inhibiting Test)
PCR was performed using DNAs having base sequences described in SEQ ID NO. 1 and SEQ ID NO. 2 as primers and human kidney cDNA as a template to prepare a plasmid containing amplified fragments. The plasmid was cleaved with restriction endonucleases Pst I and Xba I to obtain a Pst I-Xba I fragment of 0.7 kb.
Meanwhile, Est clone (Cosmo Bio, Tokyo) of GenBank, ACCESSION WO 4835 was cleaved with restriction endonucleases Kpn I and Pst I to obtain a Kpn I-Pst I fragment of 1.5 kb.
The resulting Pst I-Xba I fragment of 0.7 kb and Kpn I-Pst I fragment of 1.5 kb were subcloned in a Kpn I-Xba I site of pBluescript II KS(−) (STRATAGENE, La Jolla, Calif., USA),to construct a plasmid having a cDNA fragment completely including a catalyst region of PDE10A. Subsequently, the plasmid was cleaved with restriction endonucleases Kpn I and Not I to obtain a Kpn I-Not I fragment of 2.2 kb.
The resulting Kpn I-Not I fragment of 2.2 kb and a linker having a BamH I-Kpn I cleavage surface prepared by synthetic DNA having base sequences described in SEQ ID NOS. 3 and 4 were subcloned in a BamH I-Not I site of pVL1393 (PharMingen, San Diego, Calif., USA) to obtain a plasmid for preparation of Baculovirus. The plasmid contains a DNA encoding a peptide in which methionine, FLAG tag and a peptide having a 64th to 779th amino acid sequence of PDE10A [GenBank, ACCESSION NP 006652: Gene, vol. 234, p. 109 (1999), J. Biol. Chem., vol. 274, p. 18438 (1999)] are bound in the order.
The above gene recombinational manipulation was performed according to the method described in Molecular Cloning, 2nd edition, Cold Spring Harbor Laboratory Press, New York (1989).
The expression of PDE10A was conducted according to the Baculovirus expression vector system manual (PharMingen) using insect cells. As insect cells, Sf9 cells (Asahi Technoglass, Tokyo) were used. Sf9 cells were infected with a supernatant (co-transfection sup) containing PDE10A expression virus prepared according to the manual, and cultured at 27° C. for 4 days. The cells were recovered, washed with a phosphate-buffered saline (PBS), and then suspended in an extraction solution [20 mmol/L Tris-acetate (pH 7.5), 2 mmol/L MgCl2, 1 mmol/L dithiothreitol, 1 mmol/L ethylenediaminetetraacetic acid (EDTA), 0.25 mol/L sucrose, 250 unit/mL aprotinin, 40 μg/mL phenylmethylsulfonyl fluoride, and 1 μg/mL pepstatin A]. The cells were disrupted in ice with the maximum output under conditions of 5 seconds and five times using an ultrasonic disruption machine (TOMY model UR-200R, TOMY, Tokyo). A soluble fraction was obtained by centrifugation under 10,000 rpm of the fraction at 4° C. for 30 minutes, and the resulting soluble fraction was used for measuring the PDE activity.
The PDE activity was measured according to the method described in Methods Enzymol., vol. 159, p. 457 (1988).
Using [^3H]cAMP as a substrate, an enzyme reaction was conducted in a reaction solution containing 300 μL of 50 mmol/L N,N-bis (2-hydroxyethyl)-2-aminoethanesulfonic acid (pH 7.2), 1 mmol/L MgCl2 and 0.1 mmol/L ethylene glycol-bis (β-aminoethyl ether)-N,N,N′,N′-tetraacetic acid: EGTA). The concentration of the substrate was 0.2 μmol/L. To 95 μL of an enzyme dilute solution were added 5 μL of a test compound (DMSO solution) and 200 μL of a substrate solution. The mixture was incubated at 30° C. for 20 minutes, and then HCl was added to stop the reaction. The reaction product (5′-AMP) was converted to adenosine using 5′-nucleotidase, and separated the unreacted product from the reactant by DEAE-Sephadex A-25 column (Amersham Pharmacia Biotech, Uppsala, Sweden). The elute was moved to scintillation vials, 6 mL of Ultima Gold (Packard Instrument, Meriden, Conn., USA) was added, and the radioactivity was measured for 2 minutes using a liquid scintillation counter (Beckman LS6500, Beckman, Tokyo),. […]

[1] abbreviates: Test compound concentration 1 μmol/L, substrate [3H]cAMP 0.2 μmol/L.

T1 sequence (Q9Y233 340-1055): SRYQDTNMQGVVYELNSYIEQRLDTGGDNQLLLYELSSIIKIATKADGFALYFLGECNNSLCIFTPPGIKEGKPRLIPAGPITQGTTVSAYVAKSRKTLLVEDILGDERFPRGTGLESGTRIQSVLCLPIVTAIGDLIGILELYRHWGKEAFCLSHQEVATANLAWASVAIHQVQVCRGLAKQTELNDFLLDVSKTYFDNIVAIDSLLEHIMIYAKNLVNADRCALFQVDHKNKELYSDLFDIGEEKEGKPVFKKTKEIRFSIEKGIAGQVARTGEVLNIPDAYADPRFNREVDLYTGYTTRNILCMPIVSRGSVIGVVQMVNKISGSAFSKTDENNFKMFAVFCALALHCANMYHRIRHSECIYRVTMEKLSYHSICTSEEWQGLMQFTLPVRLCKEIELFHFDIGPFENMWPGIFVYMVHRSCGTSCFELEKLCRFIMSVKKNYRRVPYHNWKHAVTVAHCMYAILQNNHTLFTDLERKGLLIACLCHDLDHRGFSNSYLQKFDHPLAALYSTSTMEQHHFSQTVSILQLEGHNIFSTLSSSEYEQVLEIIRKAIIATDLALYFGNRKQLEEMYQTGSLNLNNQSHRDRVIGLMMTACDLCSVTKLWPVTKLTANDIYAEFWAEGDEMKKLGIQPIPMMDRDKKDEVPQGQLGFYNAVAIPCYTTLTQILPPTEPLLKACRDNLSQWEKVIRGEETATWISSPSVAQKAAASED

Turning to `COc1ccccc1-c1ccc(-c2nc3ccc(F)cc3c(C(=O)O)c2C)cc1` [D, 6-Fluoro-2-(2′-methoxybiphenyl-4-yl)-3-methylquinoline-4-carboxylic acid], the melting point was in the range of 283 to 295 °C. Also, at PDE10A (setting [1]), the inhibition at 1 µM was determined as 99%. For the same compound, the IC50 on PDE10A (substrate [3H]cAMP 0.2 μmol/L) was found to be 11 nM.
As to `Cc1c(-c2ccc(-c3ccccc3-c3ccccc3)cc2)nc2ccc(F)cc2c1C(=O)O` [Compound C, 6-Fluoro-3-methyl-2-([1,1′:2′,1″-terphenyl)-4-yl)quinoline-4-carboxylic acid], the melting point is greater than 300 °C. In addition, on PDE10A, the inhibition at 1 µM turned out to be 99%. In addition, at PDE10A (substrate [3H]cAMP 0.2 μmol/L), the IC50 worked out at 0.9 nM.
Regarding `COc1ccccc1-c1ccc(-c2nc3ccc(F)cc3c(CO)c2C)cc1` [Compound 2, 6-Fluoro-4-hydroxymethyl-2-(2′-methoxybiphenyl-4-yl)-3-methylquinoline], the melting point fell in the range of 178 to 179 °C. At PDE10A (setting [1]), the inhibition at 1 µM is 97%. In addition, at PDE10A (substrate [3H]cAMP 0.2 μmol/L), the IC50 is 66 nM.
`Cc1c(-c2ccc(-c3ccccc3CNc3ccccc3)cc2)nc2ccc(F)cc2c1CO` [Compound 13, 6-Fluoro-4-hydroxymethyl-3-methyl-2-[2′-(phenylamino)methylbiphenyl-4-yl]quinoline]: the melting point was in the range of 201 to 202 °C. Besides, the inhibition at 1 µM at PDE10A (setting [1]) is 90%. In addition, the IC50 on PDE10A (substrate [3H]cAMP 0.2 μmol/L) is 103 nM.
On the same counts, the results for `Cc1c(-c2ccc(-c3ccccc3-c3ccccc3)cc2)nc2ccc(F)cc2c1CO` [Compound 1, 6-Fluoro-4-hydroxymethyl-3-methyl-2-([1,1′:2′,1″-terphenyl]-4-yl)quinoline] are 121 to 123 °C, 99% and 4.2 nM.
As to `Cc1c(-c2ccc(-c3ccccc3CO)cc2)nc2ccc(F)cc2c1C(=O)O` [K, 6-Fluoro-2-(2′-hydroxymethylbiphenyl-4-yl)-3-methylquinoline-4-carboxylic acid], the melting point is 258 to 260 °C. At PDE10A (setting [1]), the inhibition at 1 µM worked out at 90%.
On to `Cc1ccccc1-c1ccc(-c2nc3ccc(F)cc3c(C(=O)O)c2C)cc1` [H, 6-Fluoro-3-methyl-2-(2′-methylbiphenyl-4-yl)quinoline-4-carboxylic acid], for which the melting point is 260 °C (dec.). For the same compound, the inhibition at 1 µM on PDE10A (setting [1]) was determined as 97%. At PDE10A (substrate [3H]cAMP 0.2 μmol/L), the IC50 amounted to 47 nM.
Turning to `CCOc1cccc(-c2ccc(-c3nc4ccc(F)cc4c(CO)c3C)cc2)c1` [Compound 4, 2-(31-Ethoxybiphenyl-4-yl)-6-fluoro-4-hydroxymethyl-3-methylquinoline], the melting point lay in the range of 199 to 200 °C. Moreover, the inhibition at 1 µM on PDE10A (setting [1]) came to 83%.
The compound `Cc1c(-c2ccc(-c3ccccc3-c3ccccc3)cc2)nc2ccc(F)cc2c1C(N)=O` [O, 6-Fluoro-3-methyl-2-([1,1′:2′,1″-terphenyl]-4-yl)quinone-4-carboxamide] displayed a melting point of 243 to 246 °C. At PDE10A, the inhibition at 1 µM is 94%. Further, the IC50 at PDE10A (substrate [3H]cAMP 0.2 μmol/L) turned out to be 33 nM.
